This is an account of results in PMC4890880 (ACS infectious diseases, 2016).

pIC50: −log10 of the molar value. Read-outs that look alike come from different tables or passages of the source.

Usually CC50 stands for the concentration giving 50% cytotoxicity. A word on the inhibition: it is the drop in the measured response relative to a control, in per cent.

Data set [1] concerns HepG2-A16-CD81EGFP cells.
Data set [2] has as its system Plasmodium berghei (Pb-Luc) exoerythrocytic-stage parasites.
The subject of data set [3] is P. falciparum Dd2 erythrocytic stage. The data set is described as follows: Dd2 erythrocytic-stage assay (SYBR Green) for DOS compounds. To be noted: for pIC50: read-out: Erythrocytic-stage (Pf Dd2) IC50, Figure 4b.
A further data set addresses T1, Plasmodium DHODH enzyme (Plasmodium falciparum, UniProt Q08210).
T1 sequence (Q08210 24-569): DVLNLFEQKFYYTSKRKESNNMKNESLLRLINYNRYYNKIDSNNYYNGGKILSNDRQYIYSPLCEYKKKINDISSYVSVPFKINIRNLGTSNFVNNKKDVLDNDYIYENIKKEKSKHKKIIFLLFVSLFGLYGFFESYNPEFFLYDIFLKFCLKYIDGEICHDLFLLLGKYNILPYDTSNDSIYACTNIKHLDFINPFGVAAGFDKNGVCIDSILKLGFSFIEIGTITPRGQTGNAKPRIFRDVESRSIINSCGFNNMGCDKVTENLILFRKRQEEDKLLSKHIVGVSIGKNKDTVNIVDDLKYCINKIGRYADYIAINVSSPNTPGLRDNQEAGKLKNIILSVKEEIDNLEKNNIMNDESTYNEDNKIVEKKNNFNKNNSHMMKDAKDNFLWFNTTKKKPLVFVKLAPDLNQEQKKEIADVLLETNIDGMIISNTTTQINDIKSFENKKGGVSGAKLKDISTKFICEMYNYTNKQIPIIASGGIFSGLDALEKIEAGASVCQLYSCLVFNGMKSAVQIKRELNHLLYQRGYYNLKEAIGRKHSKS
The data set is described as follows: DHODH assay. The note with it: data not shown.

For data set [4] the following is noted: only compound of the set tested with exposure; cited from earlier work.
In data set [5] the test system is HepG2-A16-CD81EGFP cells. The data set is described as follows: cells. To be noted: Homo sapiens; for pIC50: HepG2, read-out: Tox IC50.
The test system of data set [6] is Plasmodium berghei (Pb-Luc) exoerythrocytic-stage parasites. The data set is described as follows: microbe, parasite or virus in culture. To be noted: for pIC50: read-out: PbLuc IC50, dose response, 1/3 dilutions, max conc. 10 or 50 uM, unit inferred.
In data set [7] the test system is Plasmodium cynomolgi exoerythrocytic-stage small (hypnozoites) and large (liver stage schizonts) parasites. The data set is described as follows: P. cynomolgi liver assay in primary hepatocytes. The note with it: for inhibition at 0.1 µM / inhibition at 1 µM / inhibition at 10 µM: Plasmodium cynomolgi, Hepatocyte.
The subject of data set [8] is P. berghei expressing GFP (Pb-GFP) in Huh7.5.1 cells. Nature of the data set: Flow cytometry assay of traversal, invasion, EEF frequency and EEF development. It is filed as cell-based, Plasmodium berghei. The note with it: 2 hours post infection; 1 μM.
Data set [9] deals with P. falciparum 3D7 parasites. Nature of the data set: Asexual erythrocytic-stage SYBR Green I proliferation assay, 1536-well. It is filed as cell-based, Plasmodium falciparum. To be noted: Plasmodium falciparum, 3D7, read-out: erythrocytic-stage P. falciparum IC50, values reported in Table S1, Additional File 1.
Data set [10] has as its system Pb-Luc exoerythrocytic-stage parasites in Huh7.5.1 cells. The data set is described as follows: Pb-Luc time of action assay (modified 384-well luciferase assay). To be noted: Plasmodium berghei.
Data set [11] concerns the target QuantiLum Recombinant Luciferase (Photinus pyralis, UniProt P08659). Nature of the data set: Bioluminescence quantification of compound luciferase inhibition.
For a further data set, the system named is Huh7.5.1 cells. Nature of the data set: Cytotoxicity in Huh7.5.1 cells (Figure S4). To be noted: at 10 μM.
Setting [12] is: read-out: Exoerythrocytic-stage Pb-Luc IC50, Figure 4b, first assay.
[13] abbreviates: read-out: Exoerythrocytic-stage Pb-Luc IC50, Figure 4b, second assay (value in parentheses).
Setting [14] is: HepG2, read-out: HepG2 Tox% @ 50 uM rep1.
Where [15] appears, read: read-out: Inhibition% @ 50 uM rep1.
Where [16] appears, read: read-out: Inhibition% @ 50 uM rep2.
Setting [17] is: read-out: % inhibition normalized to untreated control, Large.
[18] abbreviates: read-out: % inhibition normalized to untreated control, Small.

QuantiLum Recombinant Luciferase, sequence (P08659 whole entry): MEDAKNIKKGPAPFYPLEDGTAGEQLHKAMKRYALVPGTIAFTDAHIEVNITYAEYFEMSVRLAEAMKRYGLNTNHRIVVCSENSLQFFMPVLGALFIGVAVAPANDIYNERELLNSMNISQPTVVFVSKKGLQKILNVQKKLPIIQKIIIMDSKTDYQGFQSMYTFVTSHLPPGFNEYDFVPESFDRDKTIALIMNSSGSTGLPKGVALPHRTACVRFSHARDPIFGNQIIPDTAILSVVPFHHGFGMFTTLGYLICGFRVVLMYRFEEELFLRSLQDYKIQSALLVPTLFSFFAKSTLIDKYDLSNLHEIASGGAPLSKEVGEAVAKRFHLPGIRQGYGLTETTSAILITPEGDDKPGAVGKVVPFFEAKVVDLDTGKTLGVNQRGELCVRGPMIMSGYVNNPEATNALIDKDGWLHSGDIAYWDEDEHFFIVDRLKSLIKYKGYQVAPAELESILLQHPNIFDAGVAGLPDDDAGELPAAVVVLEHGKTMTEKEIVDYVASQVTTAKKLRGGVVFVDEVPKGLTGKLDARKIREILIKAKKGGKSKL

Turning to `CS(=O)(=O)N1[C@H](C#N)[C@H](c2ccc(C#Cc3cccc(F)c3)cc2)[C@H]1CO` [BRD0326], the CC50 in the data set on HepG2-A16-CD81EGFP cells [1] is > 10000 nM. The pIC50 was 6.52 in [2] (setting [12]); 6.82 in data set [2] (setting [13]); 6.82 in data set [2] (read-out: Pb-Luc IC50, Figure 4a, stereoisomers tested in dose response); > 6.00 in data set [2] (read-out: Pb-Luc IC50, Figure 4a, stereoisomers tested in dose response, listed as BRD0326 SSS); < 5.00 in [3]. In addition, in [3] (in words), the erythrocytic-stage activity result is “no erythrocytic-stage activity”. Moreover, the “activity in a DHODH assay” value at Plasmodium DHODH enzyme is “inactive”.

Take `CCCNC(=O)N1[C@H](CO)[C@H](c2ccc(C#Cc3cccc(F)c3)cc2)[C@@H]1C#N` [BRD9781]: the pIC50 in data set [2] (setting [12]) was 7.10; in data set [2] (setting [13]) it was 7.40; in [2] (read-out: Pb-Luc IC50, Figure 4a, stereoisomers tested in dose response, listed as BRD9781/7539 series SRR) it was 7.41; in data set [3] it was 5.07. On Plasmodium DHODH enzyme, the “activity in a DHODH assay” value was “inactive”.

As for `Brc1ccc(Nc2nc3ccccc3nc2Nc2ccc(Br)cc2)cc1` [MMV007224], the “pharmacokinetic exposure in vivo” value in data set [4] was “any pharmacokinetic exposure in vivo”. For the same compound, in the data set with HepG2-A16-CD81EGFP cells [5] (setting [14]), the cytotoxicity at 50 µM turned out to be 100%. Besides, the values for the pIC50 (in the data set with HepG2-A16-CD81EGFP cells [5]; in data set [6]) were 5.71 and 6.77, respectively. The inhibition at 50 µM in the data set on HepG2-A16-CD81EGFP cells [5] (HepG2, read-out: Tox max inhibition (%) @ 50 uM) is 99%; in [6] (setting [15]), 103%; in data set [6] (setting [16]) it was 103%; in data set [6] (read-out: PbLuc max inhibition (%) @ 50 uM) it was 101%. The inhibition at 0.1 µM in data set [7] (setting [17]) worked out at 23%; in data set [7] (setting [18]), 30%. Further, the figures for the inhibition at 1 µM in data set [7] (setting [17]) and in data set [7] (setting [18]) were 43% and 20%, respectively. The inhibition at 10 µM in [7] (setting [17]) is 96%; in data set [7] (setting [18]), 67%. Moreover, the “activity against small or large forms” value in data set [7] (at 10 μM, in words) is “moderate activity”.

Regarding `COc1cccc(C=Cc2nc(=O)c3ccccc3o2)c1OC` [MMV666693], the “effect on sporozoite invasion” value in data set [8] is “not affected”. Besides, the “effect on sporozoite traversal of hepatocytes” value in data set [8] is “slight effect”. In addition, the cytotoxicity at 50 µM in the data set on HepG2-A16-CD81EGFP cells [5] (setting [14]) was -0.938%; in the data set on HepG2-A16-CD81EGFP cells [5] (HepG2, read-out: HepG2 Tox% @ 50 uM rep2), 7%. Further, the pIC50 was < 5.00 in the data set on HepG2-A16-CD81EGFP cells [5]; 8.01 in data set [6]; > 7.00 in data set [9]; 6.76 in [10] (Huh-7.5.1, read-out: Pb-Luc IC50, Treatment: 1); 7.70 in [10] (Huh-7.5.1, read-out: Pb-Luc IC50, Treatment: 2); 6.53 in [10] (Huh-7.5.1, read-out: Pb-Luc IC50, Treatment: 3). For the same compound, the pIC50 was 7.82 in data set [10] (Huh-7.5.1, read-out: Pb-Luc IC50, Treatment: 4); 7.80 in data set [10] (Huh-7.5.1, read-out: Pb-Luc IC50, Treatment: 5); 7.92 in data set [10] (Huh-7.5.1, read-out: Pb-Luc IC50, Treatment: 6); 5.27 in data set [11]. Moreover, the inhibition at 10 µM with HepG2-A16-CD81EGFP cells [5] (HepG2, read-out: Tox max inhibition (%) @ 10 uM) came to 123%; in data set [6] (read-out: PbLuc max inhibition (%) @ 10 uM) it was 108%; in data set [7] (setting [17]) it was 15%; in data set [7] (setting [18]), 30%. For the same compound, the inhibition at 50 µM in data set [6] (setting [15]) was 102%; in [6] (setting [16]), 103%. In addition, the figures for the inhibition at 0.1 µM in data set [7] (setting [17]) and in [7] (setting [18]) were 22% and 29%, respectively. The inhibition at 1 µM in data set [7] (setting [17]) was -3%; in data set [7] (setting [18]), 16%. In [11] (read-out: LucInhib max inhibition), the Emax was determined as 89%. Moreover, the “cytotoxicity in Huh7.5.1 cells” value in the data set with Huh7.5.1 cells is reported as “slight cytotoxicity”.
